# According to patent US11180495B2 (Abbisko Therapeutics Co., Ltd., priority 2017, dated 2021):
# Read-outs that look alike come from different tables or passages of the source.
# Experiments:
# [1] = system: M-NFS-60 mouse myeloid leukemia lymphocytes; assay: CSF-1R-related cell proliferation experiment (Cell Titer Glo); format: cell-based; details: 72 h, M-NFS-60 cells, 3 days, CTG
# Protocol: Functional effects of compounds on cell proliferation were evaluated by using Cell Titer Glo (CTG) study in the present invention. M-NFS-60 mouse myeloid leukemia lymphocytes (cat. No. CCBJ078) from National Institutes For Food and Drug Control were cultured in the incubator under conditions of RPMI 1640 (Gibco, cat. No. 11875-119), 10% fetal bovine serum (Gibco, 10099-141), human 10 ng/mL M-CSF macrophage colony-stimulating factor (R&D, cat. No. MVN0915101), 37° C. and 5% CO2. Since ATP is an index for viable cell metabolism, CTG (Promega, #G7573) reagent is a homogeneous detection method for detecting the number of viable cells in the culture by quantifying ATP. Therefore, compound-mediated inhibition for cell proliferation/survival was evaluated by quantifying ATP in cells, and the specific experimental process was as follows: • 1. The cells were plated into a tissue-culture-medium-treated 96-well plate (Costar #3904) with 5,000 cells/well/80 μL fresh culture medium: • 2. 24 hours later, 10 μL culture medium containing testing compound with 10-fold of final concentration was added to each well; • 3. 10 μL of culture medium containing M-CSF with 10-fold of the final concentration was then added to each well: • 4. dosage effect was evaluated by testing the 3-fold serial dilutions of the compound; • 5. after the cells were incubated for 3 days at 37° C. and 5% CO2, the inhibition on cell survival was quantified after 50 μL of CTG was added and the luminescence assay was performed; • 6. the compound concentration leading to half maximal inhibitory (IC50) and the compound concentration leading to absolute half maximal inhibitory (Absolute IC50) were measured by a plate reader (M1000, Tecan) and a four-parameter curve fit in Graphpad Prism 7. D. CSF-1R-Related Cell Proliferation Experiment
# [2] = biological target: T1, CSF-1R (Homo sapiens, UniProt P07333); assay: CSF-1R in vitro biochemical kinase study (ADP-Glo assay); details: 3.95 nM CSF-1R, 500 μM ATP, 30° C. 60 min, read-out: Enzymatic experiment CSF-1R IC50
# T1 construct: 3.95 nM of CSF-1R, 500 μM of ATP and 0.2 mg/mL of polypeptide
# Protocol: In the present invention, the inhibitory activity of compounds against the CSF-1R activity was determined by using CSF-1R ADP-Glo assay. The compound-mediated inhibition effect was achieved by inhibiting the production of ADP from consumption of ATP, and the activities of compounds were evaluated by using the ADP-Glo kit (Promega, cat. No. V9101). The specific experimental process was as follows: • 1. The kinase reaction performed in the present invention was carried out in a 384-well plate (Perkinelmer, cat. No. 6007290), and 3.95 nM of CSF-1R, 500 μM of ATP and 0.2 mg/mL of polypeptide (Poly (Glu4, Try1), Sigma, cat. No. P0275) were respectively weighed and added to each well: • 2. following reagents were then added to each well to reach the final reaction system: 40 mM Tris, pH 7.5, 20 mM MgCl2, 0.01% Triton X-100, 0.1 mg/mL BSA, 2.5 mM DTT and 0.1% DMSO; • 3. the reaction was conducted at 30° C. for 60 min; • 4. then an equal volume of stop solution (ADP-Glo) was added to the kinase reaction system; • 5. the mixed solution was incubated at 25° C. for 60 min, and the kinase reaction was then terminated; • 6. a two-fold volume of detection reagent was then added to each well; • 7. the mixed solution was incubated at 25° C. for 30 min; • 8. the compound IC50 value was measured by using a plate reader (Tecan, M1000) and a four-parameter curve was generated in Graphpad Prism. B. KIT/PDGFRA In Vitro Biochemical Kinase Study • 1. Preparation of 1-fold kinase buffer and stop solution • 1.1 1-fold kinase buffer: 50 mM HEPES, pH 7.5, 0.0015% Brij-35. • 1.2 stop solution: 100 mM HEPES, pH 7.5, 0.015% Brij-35, 0.2% Coating Reagent #3 50 mM EDTA • 2. Preparation of compound solution • 2.1 Dilution of compound solution • 1) The final concentration of the compound solution was 40 μM. and the concentration of the prepared stock solution was 50 times of the final concentration, i.e., 2 mM. • 2) 80 μL of 100% DMSO was added to the second well of the 96-well plate, then 20 μL of 10 mM compound solution was added, and thereby 2 mM compound solution was prepared, 60 μL of 100% DMSO was added to other wells, 20 μL of compound was taken from the second well, added to the third well and diluted by 4 times. This serial 4-time dilution was conducted in sequence for the total of 10 concentrations. • 2.2 5-fold compound solution transferred to a reaction plate • 1) 10 μL of solution was taken from each well of the above 96-well plate and added to another 96-well plate, and 90 μL of kinase buffer was added. • 2) 5 μL of solution was taken from the above 96-well plate and added to a 384-well reaction plate. • 2.3 Kinase reaction • 1) KIT/PDGFRA kinase was added to the 1-fold kinase buffer solution to obtain a 2.5-fold kinase solution. • 2) FAM-labeled polypeptide and ATP were added to the 1-fold kinase buffer solution to obtain a 2.5-fold substrate solution. • 3) 10 μL of 2.5-fold kinase solution was added to the 384-well reaction plate, which already contained 5 μL of 5-fold compound in 10% DMSO. And the mixed solution was incubated at room temperature for 10 min. • 4) 10 μL of 2.5-fold substrate solution was added to the 384-well reaction plate. • 5) Kinase reaction and termination: the mixed solution was incubated at 28° C. for a certain period of time, and 25 μL of stop solution was added to stop the reaction. • 2.4 Data reading of Caliper EZ Reader II • 2.5 Calculation of percent inhibition and IC50 • 1) Percent conversion data were copied from the Caliper EZ Reader. • 2) Percent conversion was converted into percent inhibition data, wherein, max referred to percent conversion of the DMSO control, and min referred to percent conversion of the negative control without kinase activity. Percent inhibition=(max−conversion)/(max−min)*100. • 3) The IC50 value was fitted with XLFit excel add-in version 5.4.0.8: Fitting formula: Y=Bottom+(Top−Bottom)/(1+(IC50/X)^HillSlope).
# [3] = system: MV-4-11 human acute monocytic leukemia cells; assay: FLT3-related cell proliferation experiment (Cell Titer Glo); format: cell-based; details: MV4-11, 72 h, MV-4-11 cells, 3 days, CTG, read-out: Cytological experiment FLT3 IC50
# Protocol: (§1) Functional effects of compounds on the proliferation of several cell lines were evaluated by Cell Titer Glo (CTG) studies in the present invention, and effects of the compounds on the proliferation of different cells were evaluated to determine the selectivity degree of the compounds. In the study, M-07e human cytomegalic leukemia cells (cat. No. CBP60791) from Nanjing Kebai Biotechnology Co., Ltd. were cultured in an incubator under conditions of RPMI1640 (Gibco, cat. No. 11875-119), 20% fetal bovine serum (Gibco, 10099-141), human 10 ng/mL GM-CSF granulocyte macrophage colony-stimulating factors (R&D, cat. No. 215-GM-010), 37° C. and 5% CO2; and Kasumi-1 human acute myeloblastic leukemia cells (cat. No. CBP60524) were cultured in an incubator under conditions of RPMI1640 (Gibco, cat. No. 11875-119), 20% fetal bovine serum (Gibco, 10099-141), 37° C. and 5% CO2; NCI-H1703 human non-small cell lung squamous carcinoma cells (cat. No. CBP60115) were cultured in an incubator under conditions of RPMI1640 (Gibco, cat. No. 11875-119), 10% fetal bovine serum (Gibco, 10099-141), 37° C. and 5% CO2; and MV-4-11 human acute monocytic leukemia cells (cat. No. CBP60522) were cultured in an incubator under conditions of IMDM (Invitrogen, cat. No. 12440053), 20% fetal bovine serum (Gibco, 10099-141), 37° C. and 5% CO2. Since ATP is an index for viable cell metabolism, CTG (Promega, #G7573) reagent is a homogeneous detection method for detecting the number of viable cells in the culture by quantifying ATP. Therefore, compound-mediated inhibition for cell proliferation/survival was evaluated by quantifying ATP content in cells, and the specific experimental process was as follows.
# III) MV-4-11 Human Acute Monocytic Leukemia Cell • 1.
# [4] = system: NCI-H1703 human non-small cell lung squamous carcinoma cells; assay: PDGFRA-related cell proliferation experiment (Cell Titer Glo); format: cell-based; details: 72 h, 3 days, CTG, read-out: Cytological experiment PDGFRA IC50
# Protocol: as §1
# II) NCI-H1703 Human Non-Small Cell Lung Squamous Carcinoma Cell • 1.
# [5] = system: M-07e human cytomegalic leukemia cells; assay: KIT-related cell proliferation experiment (Cell Titer Glo); format: cell-based; details: 72 h, M-07e cells, SCF, 3 days, CTG, read-out: Cytological experiment KIT IC50
# Protocol: as §1
# I) M-07e Human Cytomegalic Leukemia Cell: • 1. The cells were plated into a tissue-culture-medium-treated 96-well plate (Costar #3904) with 3500 cells/well/80 μL fresh culture medium, and cultured for 24 hrs; • 2. the next day, 10 μL of culture medium containing testing compound with 10-fold of final concentration was added to each well; • 3.
# [6] = absolute half maximal inhibitory concentration, read-out: Cytological experiment CSF-1R Absolute IC50
# [7] = read-out: Cytological experiment CSF1R IC50
# T1 sequence (P07333 20-972): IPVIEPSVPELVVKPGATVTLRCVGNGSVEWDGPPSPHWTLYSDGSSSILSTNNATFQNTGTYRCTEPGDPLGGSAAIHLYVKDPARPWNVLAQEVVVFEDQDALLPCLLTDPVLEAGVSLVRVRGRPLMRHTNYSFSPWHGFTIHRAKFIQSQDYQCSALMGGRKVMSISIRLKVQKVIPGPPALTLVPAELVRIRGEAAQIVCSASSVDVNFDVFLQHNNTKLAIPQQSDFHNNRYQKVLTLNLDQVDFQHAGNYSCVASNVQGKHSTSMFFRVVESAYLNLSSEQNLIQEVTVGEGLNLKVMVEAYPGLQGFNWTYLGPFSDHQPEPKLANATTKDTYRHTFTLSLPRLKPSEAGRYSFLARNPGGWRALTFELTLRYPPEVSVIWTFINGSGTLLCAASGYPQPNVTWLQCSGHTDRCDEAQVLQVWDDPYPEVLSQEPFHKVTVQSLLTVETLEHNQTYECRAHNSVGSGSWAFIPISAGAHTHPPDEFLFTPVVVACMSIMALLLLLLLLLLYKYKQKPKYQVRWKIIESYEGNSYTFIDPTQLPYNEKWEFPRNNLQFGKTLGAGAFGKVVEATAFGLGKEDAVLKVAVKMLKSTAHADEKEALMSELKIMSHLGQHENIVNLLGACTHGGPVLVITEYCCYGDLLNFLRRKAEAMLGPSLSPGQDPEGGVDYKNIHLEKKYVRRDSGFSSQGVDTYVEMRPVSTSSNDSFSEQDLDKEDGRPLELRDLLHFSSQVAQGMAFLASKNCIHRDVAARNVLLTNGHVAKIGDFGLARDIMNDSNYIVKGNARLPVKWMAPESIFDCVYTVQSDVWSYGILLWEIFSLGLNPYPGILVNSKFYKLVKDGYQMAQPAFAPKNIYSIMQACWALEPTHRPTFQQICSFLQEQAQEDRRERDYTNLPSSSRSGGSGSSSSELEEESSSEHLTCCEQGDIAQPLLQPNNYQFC
Structure (SMILES),"IC50 [1, 6] [nM]","IC50 [1, 7] [nM]",IC50 [2] [nM],IC50 [3] [nM],IC50 [4] [nM],IC50 [5] [nM]
"Cc1nc(-c2cnc3n(c2=O)CCCN3C)ccc1C(=O)c1c[nH]c2ncccc12 [Example 24, 9-methyl-3-(6-methyl-5-(1H-pyrrolo[2,3-b]pyridine-3-carbonyl)pyridin-2-yl)-6,7,8,9-tetrahydro-4H-pyrimido[1,2-a]pyrimidin-4-one]",703,534,168,–,–,–
"CCN1CCCn2c1ncc(-c1ccc(Cc3c[nH]c4ncccc34)c(C)n1)c2=O [Example 19, 3-(5-((1H-pyrrolo[2,3-b]pyridin-3-yl)methyl)-6-methylpyridin-2-yl)-9-ethyl-6,7,8,9-tetrahydro-4H-pyrimido[1,2-a]pyrimidin-4-one]",56.4,67.4,–,3040,3540,978
"CC(C)Nc1ncc(-c2ccc(Cc3c[nH]c4ncccc34)cn2)c(=O)[nH]1 [Example 2, 5-(5-((1H-pyrrolo[2,3-b]pyridin-3-yl)methyl)pyridin-2-yl)-2-(isopropylamino)pyrimidin-4(3H)-one]",39.9,215,19.3,–,–,–
"COC(c1ccc(-c2cnc(NC(C)C)n(C)c2=O)nc1C)c1c[nH]c2ncc(Cl)cc12 (stereo not drawn) [Example 8, 5-(5-((5-chloro-1H-pyrrolo[2,3-b]pyridin-3-yl)(methoxy)methyl)-6-methylpyridin-2-yl)-2-(isopropylamino)-3-methylpyrimidin-4(3H)-one]",–,–,331,–,–,–
"COCCOc1cnc2[nH]cc(Cc3ccc(-c4cnc(NC(C)C)[nH]c4=O)nc3C)c2c1 [Example 3, 2-(isopropylamino)-5-(5-((5-(2-methoxyethoxy)-1H-pyrrolo[2,3-b]pyridin-3-yl)methyl)-6-methylpyridin-2-yl)pyrimidin-4(3H)-one]",47.4,50.8,39.1,–,–,–
"Cc1nc(-c2cnc(NC(C)C)[nH]c2=O)ccc1C(=O)c1c[nH]c2ncccc12 [Example 6, 2-(isopropylamino)-5-(6-methyl-5-(1H-pyrrolo[2,3-b]pyridine-3-carbonyl)pyridin-2-yl)pyrimidin-4(3H)-one]",–,–,88.1,–,–,–

# Other lines, results leading:
"IC50 [1, 6] [nM]","IC50 [1, 7] [nM]",IC50 [2] [nM],IC50 [3] [nM],IC50 [4] [nM],IC50 [5] [nM],Structure (SMILES)
296,315,289,–,–,–,"Cc1nc(-c2cnc(NC(C)C)n(C)c2=O)ccc1C(C)c1c[nH]c2ncc(Cl)cc12 (stereo not drawn) [Example 12, 5-(5-(1-(5-chloro-1H-pyrrolo[2,3-b]pyridin-3-yl)ethyl)-6-methylpyridin-2-yl)-2-(isopropylamino)-3-methylpyrimidin-4(3H)-one]"
–,–,315,–,–,–,"Cc1nc(-c2cnc(NC(C)C)n(C)c2=O)ccc1C(O)c1c[nH]c2ncc(Cl)cc12 (stereo not drawn) [Example 9, 5-(5-((5-chloro-1H-pyrrolo[2,3-b]pyridin-3-yl)(hydroxy)methyl)-6-methylpyridin-2-yl)-2-(isopropylamino)-3-methylpyrimidin-4(3H)-one]"
210,235,36.4,–,–,–,"Cc1nc(-c2cnc(NC(C)C)[nH]c2=O)ccc1Cc1c[nH]c2ncc(OCCO)cc12 [Example 4, 5-(5-((5-(2-hydroxyethoxy)-1H-pyrrolo[2,3-b]pyridin-3-yl)methyl)-6-methylpyridin-2-yl)-2-(isopropylamino)pyrimidin-4(3H)-one]"
622,553,48.1,–,–,–,"Cc1nc(-n2ccc3c(ncn3C(C)C)c2=O)ccc1Cc1c[nH]c2ncc(Cl)cc12 [Example 25, 5-(5-((5-chloro-1H-pyrrolo[2,3-b]pyridin-3-yl)methyl)-6-methylpyridin-2-yl)-1-isopropyl-1,5-dihydro-4H-imidazo[4,5-c]pyridin-4-one]"
–,–,73.4,–,–,–,"Cc1nc(-c2cnc(NC(C)C)n(C)c2=O)ccc1C(=O)c1c[nH]c2ncc(Cl)cc12 [Example 11, 5-(5-(5-chloro-1H-pyrrolo[2,3-b]pyridine-3-carbonyl)-6-methylpyridin-2-yl)-2-(isopropylamino)-3-methylpyrimidin-4(3H)-one]"
